This experiment concerns SR-786 tumor cells (SR786 xenograft ALCL model). In words: In vivo tumor efficacy model: SR786 xenograft ALCL model, SGN35 and MLN8237 alone or in combination. Further details: species or system CB17 SCID female mice. To be noted: for average tumor volume day 15 / average tumor volume day 21: in mm³. Here is the method: SR-786 (4.0×10^6) tumor cells in RPMI-1640 media were aseptically injected into the subcutaneous space in the right dorsal flank of CB17 SCID female mice (Taconic Farms, Inc) using a 26 G 5/8 needle.
Brentuximab vedotin (SGN35), one vial (Seattle Genetics) was reconstituted in 10.5 ml sterile water to give a stock solution at 4.76 mg/ml concentration. The stock solution was formulated in 0.9% saline to reach the desired concentration and administered by intraperitoneal injection (IP) q4Dx21 days at 0.3 mg/kg and 0.4 mg/kg.
MLN8237 was formulated in 10% hydroxypropyl-beta-cyclodextrin and 1% sodium bicarbonate (10% HPbCD+1% NaHCO3) and administered by oral injection (1 cc syringe, 20-22 gauge) on QD schedule at 10 mg/kg and 20 mg/kg for 21 days. MLN8237 as used in the experimental section refers to alisertib sodium salt and the amount referenced is the amount of alisertib used.
Tumors were measured twice weekly using a vernier caliper. Tumor volumes were calculated using standard procedures (0.5×[…]). When the tumors reached a volume of approximately 200 mm^3 (SR-786), mice were randomized into 6-8 groups as described in the tables below, and injected with vehicle, MLN8237 or SGN35 or the combination of MLN8237 with SGN35, at various doses as described below in Tables 1 and 2. Tumor size and body weight were measured approximately twice a week for the duration of the study. Mice were euthanized when their tumor volume reached 10% of their body weight, or when the average tumor volume of a treatment or control group reached approximately 2000 mm^3. Tumor growth continued to be monitored after the dosing period in this study. Average tumor volume is reported as a function of time for selected groups in FIG. 1A and FIG. 1B.
The synergy analysis is based on the tumor volume data from day 0 to 21. Volume measurements below 25 cubic mm are excluded from the analysis because very low volumes cannot be measured accurately. The remaining measurements are log transformed and fit to a simple linear model with the measurement day as a covariate. The data are fit separately for the different animals to yield an estimated tumor growth rate for each animal in each treatment group. Based on the growth rates, the synergy score for the combination of agents A and B is defined as 100*(mean(μAB)−mean(μA)−mean(μB)+mean(μctl))/mean(μctl): where μAB, μA, μB, and μctl are the mean tumor growth rates for animals in the combination group, the A group, the B group, and the control group, respectively. The standard error of the synergy score is computed based on the variation in the growth rates among the animals. […] If the P-value is above 0.05, then the combination is considered to be additive. If the P-value is below 0.05, and the synergy score is less than zero, then the combination is considered to be synergistic. […] Otherwise, the combination is classified as antagonistic. Results

Consider `COc1cc(Nc2ncc3c(n2)-c2ccc(Cl)cc2C(c2c(F)cccc2OC)=NC3)ccc1C(=O)O` [MLN8237, 4-{[9-chloro-7-(2-fluoro-6-methoxyphenyl)-5H-pyrimido[5,4-d][2]benzazepin-2-yl]amino}-2-methoxybenzoic acid], for which, under “10 mg/kg MLN8237, QD, P.O”, the “average tumor volume day 15” value is reported as 625.4 and the “average tumor volume day 21” value amounted to 1121. Moreover, where the note is “20 mg/kg MLN8237, QD, P.O”, the “average tumor volume day 15” value is reported as 387.1 and the “average tumor volume day 21” value is 576.4. For the same molecule, where the note is “single agent MLN8237 P.O 10 mg/kg and 20 mg/kg QD”, the “tumor growth compared to the control vehicle group” value is listed as “inhibited tumor growth”.
In the case of SGN35, the “average tumor volume day 15” value (0.3 mg/kg SGN35, Q4d, I.P) was determined as 1136.1 and the “average tumor volume day 15” value (0.4 mg/kg SGN35, Q4d, I.P) was determined as 491.3. Also, the “average tumor volume day 21” value is, setting by setting: (0.3 mg/kg SGN35, Q4d, I.P) 1676; (0.4 mg/kg SGN35, Q4d, I.P) 553.8. Under “single agent SGN35 0.3 and 0.4 mg/kg I.P Q4d”, the “tumor growth compared to the control vehicle group” value is reported as “inhibited tumor growth”.
